Source: ChEMBL document CHEMBL4118189, “Discovery of novel N-hydroxy-2-arylisoindoline-4-carboxamides as potent and selective inhibitors of HDAC11” (Bioorg Med Chem Lett, 2018)
Values after ≈ are worked out from the molar mass of the structure shown.

Tests used:
[1] = molecular target: T1, Polyamine deacetylase HDAC10 (Homo sapiens, UniProt Q969S8); experiment: Inhibition of full length recombinant human HDAC10 using fluorescent-labeled peptide as substrate by electrophoretic mobility shift assay
T1 sequence (Q969S8 whole entry): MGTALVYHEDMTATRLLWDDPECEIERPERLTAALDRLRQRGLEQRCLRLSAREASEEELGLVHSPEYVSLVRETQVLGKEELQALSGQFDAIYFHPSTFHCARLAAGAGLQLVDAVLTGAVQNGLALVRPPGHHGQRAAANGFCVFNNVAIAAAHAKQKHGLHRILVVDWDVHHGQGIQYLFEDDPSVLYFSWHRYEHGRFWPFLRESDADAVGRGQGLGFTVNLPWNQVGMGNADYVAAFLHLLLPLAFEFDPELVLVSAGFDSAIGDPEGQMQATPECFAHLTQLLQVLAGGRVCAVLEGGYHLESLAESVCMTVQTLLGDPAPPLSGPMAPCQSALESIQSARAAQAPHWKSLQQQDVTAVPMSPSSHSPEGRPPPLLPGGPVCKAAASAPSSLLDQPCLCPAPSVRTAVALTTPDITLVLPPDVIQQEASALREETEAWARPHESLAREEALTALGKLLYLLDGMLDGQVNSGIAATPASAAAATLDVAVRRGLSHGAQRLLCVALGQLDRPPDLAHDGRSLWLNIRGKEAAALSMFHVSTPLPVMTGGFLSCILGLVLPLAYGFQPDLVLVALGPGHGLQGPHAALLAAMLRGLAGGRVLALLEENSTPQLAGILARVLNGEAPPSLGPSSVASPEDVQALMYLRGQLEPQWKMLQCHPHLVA

Histone deacetylase 8 = molecular target: T2, Histone deacetylase 8 (Homo sapiens, UniProt Q9BY41); experiment: Inhibition of full length recombinant human HDAC8 using fluorescent-labeled peptide as substrate by electrophoretic mobility shift assay
T2 sequence (Q9BY41 whole entry): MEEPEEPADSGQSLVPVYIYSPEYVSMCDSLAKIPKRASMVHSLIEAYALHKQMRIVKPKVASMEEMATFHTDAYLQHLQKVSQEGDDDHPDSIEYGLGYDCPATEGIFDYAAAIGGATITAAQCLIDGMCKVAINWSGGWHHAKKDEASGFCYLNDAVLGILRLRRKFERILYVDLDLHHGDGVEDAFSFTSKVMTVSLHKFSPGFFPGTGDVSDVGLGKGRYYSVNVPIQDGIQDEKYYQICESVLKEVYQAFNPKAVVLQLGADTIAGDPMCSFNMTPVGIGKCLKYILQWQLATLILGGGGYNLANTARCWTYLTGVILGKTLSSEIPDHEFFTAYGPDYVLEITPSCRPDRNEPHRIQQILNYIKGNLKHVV

[2] = Kinetic solubility of the compound at pH 7.4; type: physicochemical; conditions: buffer, read-out: Kinetic_solubility
Histone deacetylase 9 = Histone deacetylase 9 (Homo sapiens, UniProt Q9UKV0); experiment: Inhibition of full length recombinant human HDAC9 using fluorescent-labeled peptide as substrate by electrophoretic mobility shift assay
Histone deacetylase 9, sequence (Q9UKV0 whole entry): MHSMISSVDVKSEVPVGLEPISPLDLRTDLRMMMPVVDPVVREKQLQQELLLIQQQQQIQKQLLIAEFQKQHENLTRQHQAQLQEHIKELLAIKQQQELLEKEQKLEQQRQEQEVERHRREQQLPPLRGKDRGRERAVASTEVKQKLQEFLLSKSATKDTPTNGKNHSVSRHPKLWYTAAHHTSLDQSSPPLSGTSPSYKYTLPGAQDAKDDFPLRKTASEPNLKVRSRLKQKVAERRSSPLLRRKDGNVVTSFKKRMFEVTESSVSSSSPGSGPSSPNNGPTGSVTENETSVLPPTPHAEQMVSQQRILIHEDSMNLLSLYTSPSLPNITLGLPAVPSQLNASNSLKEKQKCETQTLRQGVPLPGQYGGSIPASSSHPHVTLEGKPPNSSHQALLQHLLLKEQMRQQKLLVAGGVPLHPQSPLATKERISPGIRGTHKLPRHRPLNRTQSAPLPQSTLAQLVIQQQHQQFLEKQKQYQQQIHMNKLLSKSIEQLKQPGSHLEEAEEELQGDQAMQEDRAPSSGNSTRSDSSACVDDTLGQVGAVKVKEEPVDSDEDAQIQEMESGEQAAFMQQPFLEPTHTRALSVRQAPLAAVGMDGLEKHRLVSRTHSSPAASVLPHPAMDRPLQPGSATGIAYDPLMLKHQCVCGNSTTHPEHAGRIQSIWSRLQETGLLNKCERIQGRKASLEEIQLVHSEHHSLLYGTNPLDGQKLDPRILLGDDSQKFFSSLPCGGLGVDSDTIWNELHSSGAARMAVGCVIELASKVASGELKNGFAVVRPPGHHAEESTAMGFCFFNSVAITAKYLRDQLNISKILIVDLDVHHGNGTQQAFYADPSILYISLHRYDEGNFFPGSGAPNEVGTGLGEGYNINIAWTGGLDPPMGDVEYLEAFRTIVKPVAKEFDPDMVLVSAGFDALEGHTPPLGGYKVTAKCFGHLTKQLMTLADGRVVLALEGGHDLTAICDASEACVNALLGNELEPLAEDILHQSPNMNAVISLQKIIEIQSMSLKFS

- IC50 [1]: > 10 µM
- IC50 (Histone deacetylase 8): > 10 µM
- solubility kinetic [2]: 0.3 µM (≈ 0.101 µg/mL)
- IC50 (Histone deacetylase 9): > 10 µM
SMILES: CC1(C)c2cccc(C(N)=O)c2CN1c1cnc(C(F)(F)F)cn1
